Data: PubChem BioAssay AID681 (The Scripps Research Institute Molecular Screening Center, 2007)

Molecular target: Nuclear receptor ROR-alpha (Homo sapiens) (UniProt P35398)
Experiment: RORA ligand-binding domain transactivation agonists – cell-based, CHO-K1, Gal4-RORA LBD, luciferase luminescence, dose response (AID 681)
Conditions: CHO-K1 Gal4-RORA LBD luciferase reporter

Nuclear receptor ROR-alpha (Homo sapiens), sequence (P35398 whole entry, looked up, the tested form may be a part): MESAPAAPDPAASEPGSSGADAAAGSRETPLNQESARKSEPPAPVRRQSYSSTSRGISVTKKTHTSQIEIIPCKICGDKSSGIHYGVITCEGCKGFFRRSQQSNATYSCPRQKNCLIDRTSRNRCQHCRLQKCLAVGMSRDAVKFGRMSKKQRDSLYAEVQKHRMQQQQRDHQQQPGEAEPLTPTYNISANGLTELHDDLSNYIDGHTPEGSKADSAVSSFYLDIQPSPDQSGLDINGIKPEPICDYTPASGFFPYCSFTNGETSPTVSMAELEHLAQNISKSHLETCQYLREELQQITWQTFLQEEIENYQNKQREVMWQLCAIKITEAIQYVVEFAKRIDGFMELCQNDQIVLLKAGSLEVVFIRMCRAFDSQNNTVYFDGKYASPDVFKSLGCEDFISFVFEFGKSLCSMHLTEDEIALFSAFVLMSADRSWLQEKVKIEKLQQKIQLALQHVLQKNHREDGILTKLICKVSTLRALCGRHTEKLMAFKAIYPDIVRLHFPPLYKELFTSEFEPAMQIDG

| SMILES | EC50 [nM] |
| --- | --- |
| C=CCOc1ccc(/C=C/C(C)=N\O)cc1 | 1350 |
| O=C1COc2ccc(OCc3ccc(F)cc3)cc21 | 3630 |
| CCOc1ccc(/C=C\C(C)=N\O)cc1 | 491 |
